According to US8541381B2, “Process for producing enriched fractions containing up to 100% of bacopasaponins from the plant materials of bacopa species” (Laila Impex, priority 2005, dated 2013):

melting point [°C] | Compound
248 to 256 | CC(C)=CC1C[C@@](C)(O[C@@H]2OC[C@H](O)C(O)C2O)C2C3CCC4[C@@]5(C)CC[C@H](O[C@@H]6OC[C@H](O)C(O[C@@H]7OC(CO)[C@@H](O)C(O)C7O)C6O[C@@H]6O[C@@H](CO)C(O)C6O)C(C)(C)C5CC[C@@]4(C)[C@@]34CO[C@@]2(C4)O1 (stereo partly drawn)
246 to 258 | CC(C)=CC1C[C@@](C)(O[C@@H]2OC[C@H](O)C(O)C2O)C2C3CCC4[C@@]5(C)CC[C@H](O[C@@H]6OC(CO)[C@@H](O)C(O[C@@H]7OC(CO)[C@@H](O)C(O)C7O)C6O[C@@H]6O[C@@H](CO)C(O)C6O)C(C)(C)C5CC[C@@]4(C)[C@@]34CO[C@@]2(C4)O1 (stereo partly drawn)
278 to 282 | CC(C)=C[C@H]1CO[C@]23C[C@]4(CO2)C(CCC2[C@@]5(C)CC[C@H](O[C@@H]6OC(CO)[C@@H](O)C(O[C@@H]7OC(CO)[C@@H](O)C(O)C7O)C6O)C(C)(C)C5CC[C@]24C)C3[C@]1(C)O (stereo partly drawn)
